Data: publication PMC5799297, “Metabolic Hydrolysis of Aromatic Amides in Selected Rat, Minipig, and Human In Vitro Systems” (Scientific Reports, 2018)
Read-outs that look alike come from different tables or passages of the source.

Key:
[1] = human, in vivo; cited from earlier work
[2] = cited from earlier work
AADAC = conditions: cited from earlier work
[3] = Text: (§1) Pooled subcellular fractions of male Sprague-Dawley rat liver S9 fractions (10 donors), male Sprague-Dawley Aroclor 1254 induced rat liver S9 fractions (20 donors), human liver S9 fractions (mixed gender 10 donors), male Gottingen minipig liver microsomes (3 donors) and male Gottingen minipig liver S9 fractions (3 donors) were purchased from BioreclamationIVT (West Sussex, UK). Cryopreserved primary human hepatocytes (mixed gender 10 donors) were also purchased from BioreclamationIVT. Human CES1b, CES1c and CES2 Supersomes and human liver microsomes (mixed gender 150 donors) were purchased from Corning (Flintshire, UK). […]
(§2) LC-MS/MS analysis was performed using a Waters UPLC instrument with an Acquity^TM binary solvent manager, Acquity^TM 4-position heated column manager and 2777 Ultra High Pressure Autosampler coupled to a Xevo-TQ MS triple quadrupole mass spectrometer (Waters Ltd, Herts, UK) with an electrospray ionisation (ESI) source. […] Incubations where the total parent amide decreased below 80% of the t0 baseline sample or the amine metabolite was detected were determined to be hydrolysed.

[4] = Amide hydrolysis by minipig liver microsomes; conditions: 1 mg/ml protein, 0.5 µM amide, pH 7.4, up to 120 min, no NADPH
Text: as §1, §2

## Nc1ccc([N+](=O)[O-])c(C(F)(F)F)c1 [3-trifluoromethyl-4-nitroaniline]
[1]
  hepatotoxicity: associated with hepatotoxicity

## CC(O)(CS(=O)(=O)c1ccc(F)cc1)C(=O)Nc1ccc(C#N)c(C(F)(F)F)c1 (stereo not shown) [bicalutamide, Bicalutamide]
[1]
  hepatotoxicity: few cases of hepatotoxicity

## CC(=O)Nc1ccccc1 [acetanilide, Acetanilide]
[2]
  amide hydrolysis in humans in vivo: has been observed
  dose hydrolysed in humans in vivo: approximately 10%

## CCCNC(C)C(=O)Nc1ccccc1C (stereo not shown) [prilocaine, Prilocaine]
[2]
  amide hydrolysis in humans in vivo: undergo hydrolysis

## CC(C)C(=O)Nc1ccc([N+](=O)[O-])c(C(F)(F)F)c1 [flutamide, Flutamide]
AADAC
  enzyme mainly responsible for hydrolysis: AADAC

## O=C(CCl)Nc1ccccc1 [2-chloro-N-phenylacetamide]
[3]
  change in rate of hydrolysis as a result of Aroclor 1254 induction: enhanced rate of hydrolysis

## CC(=O)Nc1ccc(O)cc1 [paracetamol, Paracetamol]
[2]
  dose hydrolysed in humans in vivo: 1–2%

## CCC(=O)Nc1ccc(Cl)c(Cl)c1 [propanil, Propanil]
[2]; human
  amide hydrolysis in humans in vivo: undergo hydrolysis
[4]
  amide hydrolysis: successful hydrolysis
